In general, EC50 refers to the midpoint of the concentration-response curve. The low end stands for a more potent agent, the high end for a less potent agent.

Experimental findings from patent US10519154B2, “7-substituted 1-pyridyl-naphthyridine-3-carboxylic acid amides and use thereof” (Bayer Pharma Aktiengesellschaft, priority 2016, dated 2019) are described below.

The assay has as its target T1, human M2 receptor (Homo sapiens, UniProt P08172).
T1 sequence (P08172 1-466): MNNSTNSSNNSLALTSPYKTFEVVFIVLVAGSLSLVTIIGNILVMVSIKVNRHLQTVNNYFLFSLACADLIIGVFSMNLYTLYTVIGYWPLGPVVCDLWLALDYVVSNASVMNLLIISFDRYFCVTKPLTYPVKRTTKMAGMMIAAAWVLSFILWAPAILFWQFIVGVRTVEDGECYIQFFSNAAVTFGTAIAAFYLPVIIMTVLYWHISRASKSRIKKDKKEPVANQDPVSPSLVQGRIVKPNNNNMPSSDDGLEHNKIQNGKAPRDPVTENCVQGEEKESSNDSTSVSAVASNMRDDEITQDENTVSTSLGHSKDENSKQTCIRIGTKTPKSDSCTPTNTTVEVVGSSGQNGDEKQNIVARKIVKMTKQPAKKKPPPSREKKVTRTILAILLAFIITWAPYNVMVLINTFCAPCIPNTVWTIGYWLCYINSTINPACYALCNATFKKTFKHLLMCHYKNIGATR
Kind of assay: Functional M2-GIRK1/4 activation test: allosteric potency (EC50) and efficiency. Conditions: for EC50: Receptor activity EC50, CHO-DUKX-M2-GIRK cells, acetylcholine at EC20, in some cases mean of two or more determinations; for Emax: read-out: Efficiency, boosting of the acetylcholine effect at EC20 acetylcholine concentration; for Emax / Efficiency: CHO-DUKX-M2-GIRK cells; for Efficiency: boosting of the acetylcholine effect at EC20 acetylcholine concentration.

As for `CCC(NC(=O)c1cn(-c2ncc(F)cc2F)c2nc(N3C[C@@H](O)[C@H](O)C3)ccc2c1=O)C(F)(F)C(F)(F)F` (single isomer, unassigned) [Example 96], a half-maximal effect (EC50) was put at 68 nM and the Emax was 100%.
Taken in the same sequence, the figures for `CC1C(=O)N(c2ccc3c(=O)c(C(=O)N[C@@H](C4CC4)C(F)(F)F)cn(-c4ncc(F)cc4F)c3n2)CC1O` (single isomer, unassigned) [Example 105] were 98 nM and 100%.
As for `CC1C(=O)N(c2ccc3c(=O)c(C(=O)N[C@@H](C4CC4)C(F)(F)F)cn(-c4ncc(F)cc4F)c3n2)CC1O` (single isomer, unassigned) [Example 106], the EC50 turned out to be 165 nM and the Efficiency turned out to be 91.50%.
Taken in the same sequence, the figures for `CC1C(=O)N(c2ccc3c(=O)c(C(=O)N[C@@H](C4CC4)C(F)(F)F)cn(-c4ncc(F)cc4F)c3n2)CC1O` (single isomer, unassigned) [Example 107] were 97 nM and 98.00%.
On to `CC[C@H](NC(=O)c1cn(-c2ncc(F)cc2F)c2nc(N3CC(O)C(C)C3=O)ccc2c1=O)C(F)(F)F` (single isomer, unassigned) [Example 109], for which the response was half-maximal at 135 nM (EC50) and the Emax is 96%.
Molecule `CC[C@H](NC(=O)c1cn(-c2ncc(F)cc2F)c2nc(N3CC(O)C(C)C3=O)ccc2c1=O)C(F)(F)F` (single isomer, unassigned) [Example 110] displayed an EC50 of 190 nM and an Efficiency of 94.50%.
`CC[C@H](NC(=O)c1cn(-c2ncc(F)cc2F)c2nc(N3CC(O)C(C)C3=O)ccc2c1=O)C(F)(F)F` (single isomer, unassigned) [Example 111] displayed an EC50 of 100 nM and an Efficiency of 99.00%.
As for `O=C(N[C@H](C1CC1)C(F)(F)F)c1cn(-c2ncccc2F)c2nc(N3CC4C[C@@]4(O)C3)ccc2c1=O` (single isomer, unassigned) [Example 136], the EC50 stood at 64 nM and the Emax was 97.5%.
In turn, `O=C(N[C@H](C1CC1)C(F)(F)F)c1cn(-c2ncccc2F)c2nc(N3CC4C[C@@]4(O)C3)ccc2c1=O` (single isomer, unassigned) [Example 137] showed an EC50 of 110 nM and an Efficiency of 99.00%.
For the molecule `O=C(NC(c1ccccc1Cl)C(F)(F)F)c1cn(-c2ncc(F)cc2F)c2nc(N3CCNC3=O)ccc2c1=O` (single isomer, unassigned) [Example 148, N-[1-(2-Chlorophenyl)-2,2,2-trifluoroethyl]-1-(3,5-difluoropyridin-2-yl)-4-oxo-7-(2-oxoimidazolidin-1-yl)-1,4-dihydro-1,8-naphthyridine-3-carboxamide], the midpoint of the response, the EC50, lay at 66 nM and the Emax came out at 100%.
In turn, `O=C(NC(c1ccccc1Cl)C(F)(F)F)c1cn(-c2ncc(F)cc2F)c2nc(N3CCNC3=O)ccc2c1=O` (single isomer, unassigned) [Example 149, N-[1-(2-Chlorophenyl)-2,2,2-trifluoroethyl]-1-(3,5-difluoropyridin-2-yl)-4-oxo-7-(2-oxoimidazolidin-1-yl)-1,4-dihydro-1,8-naphthyridine-3-carboxamide] displayed an EC50 of 32 nM and an Efficiency of 100.00%.
For the molecule `CC(NC(=O)c1cn(-c2ncc(F)cc2F)c2nc(N3CCNC3=O)ccc2c1=O)C(F)(F)C(F)(F)F` (single isomer, unassigned) [Example 162, 1-(3,5-Difluoropyridin-2-yl)-4-oxo-7-(2-oxoimidazolidin-1-yl)-N-[3,3,4,4,4-pentafluorobutan-2-yl]-1,4-dihydro-1,8-naphthyridine-3-carboxamide], it took 24 nM to reach a half-maximal effect (EC50) and the Emax amounted to 96%.
`CC(NC(=O)c1cn(-c2ncc(F)cc2F)c2nc(N3CCNC3=O)ccc2c1=O)C(F)(F)C(F)(F)F` (single isomer, unassigned) [Example 163, 1-(3,5-Difluoropyridin-2-yl)-4-oxo-7-(2-oxoimidazolidin-1-yl)-N-[3,3,4,4,4-pentafluorobutan-2-yl]-1,4-dihydro-1,8-naphthyridine-3-carboxamide] returned an EC50 of 120 nM and an Efficiency of 100.00%.
Taken in the same sequence, the figures for `CCC(NC(=O)c1cn(-c2ncc(F)cc2F)c2nc(N3CCNC3=O)ccc2c1=O)C(F)(F)C(F)(F)F` (single isomer, unassigned) [Example 166, 1-(3,5-Difluoropyridin-2-yl)-4-oxo-7-(2-oxoimidazolidin-1-yl)-N-[1,1,1,2,2-pentafluoropentan-3-yl]-1,4-dihydro-1,8-naphthyridine-3-carboxamide] were 30 nM and 81.00%.
Take `CC(NC(=O)c1cn(-c2ncc(F)cc2F)c2nc(N3CCC[C@@H]3CO)ccc2c1=O)C(F)(F)C(F)(F)F` (single isomer, unassigned) [Example 175]: the midpoint of the response, the EC50, lay at 60 nM and the Emax was determined as 98.5%.
Consider `CC(NC(=O)c1cn(-c2ncc(F)cc2F)c2nc(N3CCCC[C@@H]3CO)ccc2c1=O)C(F)(F)C(F)(F)F` (single isomer, unassigned) [Example 176], for which it took 28 nM to reach a half-maximal effect (EC50) and the Emax is 100%.
As to `CC(NC(=O)c1cn(-c2ncc(F)cc2F)c2nc(N3CCC(O)(CO)CC3)ccc2c1=O)C(F)(F)C(F)(F)F` (single isomer, unassigned) [Example 177, 1-(3,5-Difluoropyridin-2-yl)-7-[4-hydroxy-4-(hydroxymethyl)piperidin-1-yl]-4-oxo-N-(3,3,4,4,4-pentafluorobutan-2-yl)-1,4-dihydro-1,8-naphthyridine-3-carboxamide], it took 38 nM to reach a half-maximal effect (EC50) and the Emax was found to be 100%.
Consider `CC(NC(=O)c1cn(-c2ncc(F)cc2F)c2nc(N3CC4(COC4)C3)ccc2c1=O)C(F)(F)C(F)(F)F` (single isomer, unassigned) [Example 181, 1-(3,5-Difluoropyridin-2-yl)-7-(2-oxa-6-azaspiro[3.3]hept-6-yl)-4-oxo-N-[3,3,4,4,4-pentafluorobutan-2-yl]-1,4-dihydro-1,8-naphthyridine-3-carboxamide], for which a half-maximal response (EC50) required 220 nM and the Emax was determined as 100%.
Turning to `CC(NC(=O)c1cn(-c2ncc(F)cc2F)c2nc(N3CC(CO)(CO)C3)ccc2c1=O)C(F)(F)C(F)(F)F` (single isomer, unassigned) [Example 183, 7-[3,3-Bis(hydroxymethyl)azetidin-1-yl]-1-(3,5-difluoropyridin-2-yl)-4-oxo-N-[3,3,4,4,4-pentafluorobutan-2-yl]-1,4-dihydro-1,8-naphthyridine-3-carboxamide], the EC50 worked out at 53 nM and the Emax was found to be 100%.
For `CC(NC(=O)c1cn(-c2ncc(F)cc2F)c2nc(N3CCC(CO)(CO)CC3)ccc2c1=O)C(F)(F)C(F)(F)F` (single isomer, unassigned) [Example 185, 7-[4,4-Bis(hydroxymethyl)piperidin-1-yl]-1-(3,5-difluoropyridin-2-yl)-4-oxo-N-[3,3,4,4,4-pentafluorobutan-2-yl]-1,4-dihydro-1,8-naphthyridine-3-carboxamide] the same measures were 121 nM and 100%.
Taken in the same sequence, the figures for `C[C@H](NC(=O)c1cn(-c2ncc(F)cc2F)c2nc(N3C[C@@H](O)CC3=O)ccc2c1=O)C(F)(F)F` [Example 3, 1-(3,5-Difluoropyridin-2-yl)-7-[(4S)-4-hydroxy-2-oxopyrrolidin-1-yl]-4-oxo-N-[(2S)-1,1,1-trifluoropropan-2-yl]-1,4-dihydro-1,8-naphthyridine-3-carboxamide] were 240 nM and 97.8%.
For `O=C(NC(c1cccc(Cl)c1)C(F)(F)F)c1cn(-c2ncc(F)cc2F)c2nc(N3C[C@@H](O)CC3=O)ccc2c1=O` (stereo partly drawn) [Example 7, N-[1-(3-Chlorophenyl)-2,2,2-trifluoroethyl]-1-(3,5-difluoropyridin-2-yl)-7-[(4S)-4-hydroxy-2-oxopyrrolidin-1-yl]-4-oxo-1,4-dihydro-1,8-naphthyridine-3-carboxamide] the same measures were 22 nM and 100%.
On to `O=C(NC(c1ccc(Cl)cc1)C(F)(F)F)c1cn(-c2ncc(F)cc2F)c2nc(N3C[C@@H](O)CC3=O)ccc2c1=O` (stereo partly drawn) [Example 8, N-[1-(4-Chlorophenyl)-2,2,2-trifluoroethyl]-1-(3,5-difluoropyridin-2-yl)-7-[(4S)-4-hydroxy-2-oxopyrrolidin-1-yl]-4-oxo-1,4-dihydro-1,8-naphthyridine-3-carboxamide], for which the EC50 was 83 nM and the Emax amounted to 100%.
Turning to `O=C(NC(c1c(F)cccc1F)C(F)(F)F)c1cn(-c2ncc(F)cc2F)c2nc(N3C[C@@H](O)CC3=O)ccc2c1=O` (stereo partly drawn) [Example 9, N-[1-(2,6-Difluorophenyl)-2,2,2-trifluoroethyl]-1-(3,5-difluoropyridin-2-yl)-7-[(4S)-4-hydroxy-2-oxopyrrolidin-1-yl]-4-oxo-1,4-dihydro-1,8-naphthyridine-3-carboxamide], the EC50 was 20 nM and the Emax amounted to 94.5%.
